In PMC4172726, “3-Dimensional Culture Systems for Anti-Cancer Compound Profiling and High-Throughput Screening Reveal Increases in EGFR Inhibitor-Mediated Cytotoxicity Compared to Monolayer Culture Systems” (PLoS ONE, 2014):
Read-outs that look alike come from different tables or passages of the source.

Columns and labels:
[1] = test system: wild type K-Ras colon cancer cells; design: method as in PMID 23555746; details: 3D spheroids in laminin-rich extracellular matrix, concomitant reduction in EGFR levels; cited from earlier work
MCF-10A cells [2] = assay: Single concentration primary screen of ADC library, ATP content, MCF-10A cells 2D and 3D; format: cell-based, human; details: MCF-10A normal cells, 5 µM, 48 h
Description: For single concentration point primary screens, the BT-474 cells were seeded at 3000 cells/well (in RPMI+10% FBS+PSG medium) and the MCF-10A cells at 1000 cells per well (in 50/50 DMEM/F12, 5% FHS, 0.5 µg/mL hydrocortisone, 5 µg/mL insulin, 5 ng/mL rhEGF, PSG) in 96-well Corning #3595 (for 2D) or Corning #7007 (for 3D) plates. Dilution plates were made by diluting the compounds 1∶1 with 50% medium/50% DMSO to yield a final concentration of 5 µM per well.

BT-474 cells [3] = assay: Single concentration primary screen of ADC library, ATP content, BT-474 cells 2D and 3D; details: 5 µM; for hit in primary screen (decreasing ATP content by 50% or more compared to vehicle treated cells): BT-474 tumor cells, 48 h, 2D and 3D; for selectivity for BT-474 cells over MCF-10A cells in primary screen: 3D culture conditions
BT-474 cells [4] = assay: Cytotoxicity concentration-response assay (CellTiter GLO, cellular ATP) in BT-474 cells cultured in 2D or 3D
MCF-10A cells [5] = assay: Cytotoxicity concentration-response assay (CellTiter GLO, cellular ATP) in MCF-10A cells cultured in 2D or 3D; format: cell-based, human; details: MCF-10A 3D spheroid, 48 h treatment, read-out: EC50 (concentration at which the compound reduces cell viability by 50%)
Description: To generate 3D miniature cultures for HTS, cells were seeded at a cell number observed to consistently form a single, uniformly round spheroid.
(§1) To quantitate cellular ATP as a measure of viability, 50 µL of CellTiter GLO reagent (Promega) was added to each well. […] In addition, spheroids were triturated six times to promote complete lysis.

BT-474+HF+HE co-cultures = assay: Concentration-response cell viability assay (CellTiterGLO) in BT-474+HF+HE co-cultures; format: cell-based, human; details: for EC50: Homo sapiens, 48 h, 15-point concentration response
Description: (§2) For co-cultures in 3D, trypsinized cells were counted and mixed together to be seeded into 96-well round-bottom ultralow attachment plates (Corning #7007). As indicated in the legends, either the total cell number was held at 3000 cells per well, or 3000 BT-474 cells were seeded together with 1500 HFs and/or HUVECs. As we observed with the monotypic spheroids, the co-cultures also spontaneously formed one spheroid per well during the 48-hour incubation period. By analysis of ATP levels, the co-culture spheroids were viable for 5 days without a medium change or addition of supplements. All the co-cultures were maintained in a 1∶1∶1 mixture of RPMI:DMEM:EGM-2 complete media. The 2D co-cultures were plated at the same ratio of cells in the same mixed medium, but in flat bottom 96-well tissue culture plates (Corning #3595). Forty-eight hours after plating, the 2D or 3D cells were used for cytotoxicity assays, screening, or immunostaining as described in subsequent Methods sections.
as §1
(§3) For the co-culture screens, serial dilution primary screening was used. The cells were seeded in 96-well plates at 1500 HF+1500 HUVEC cells per well for the human fibroblast and human endothelial cell (HF+HE) co-cultures (in EGM-2 complete medium), or 750 HF+750 HUVEC+1500 BT-474 for the BT-474+HF+HE co-cultures (in 1∶1 RPMI+10% FBS+PSG: EGM-2 complete medium). Cells seeded in Corning #7007 round bottom, ultra-low attachment plates formed a single 3D spheroid per well while cells seeded in Corning #3595 flat bottom, tissue culture-treated plates attached as a 2D monolayer. […] Spheroid lysis was further aided by mixing 100 µl of volume using the STAR liquid handler, and then 75 µl was transferred to a Greiner Lumitrac 96-well plate for luminescence reading on a PE Envision plate reader. For the monolayer plates, 75 µl was transferred to the Greiner Lumitrac plates per well, and also read on the PE Envision.

HF+HE co-cultures = assay: Concentration-response cell viability assay (CellTiterGLO) in HF+HE co-cultures; format: cell-based, human; details: for EC50: Homo sapiens, 48 h, 15-point concentration response
Description: as §2, §1, §3

[6] = test system: HF cells cultured as 3D spheroids; assay: Cell viability assay of HF spheroids (Figure S1A)
Description: All spheroids were cultured and treated as in Figure 3A–B. Figure represents 2 experiments performed in duplicate and table utilizes EC50 values from Figure 3 as a direct comparison. B, immunofluorescent and brightfield overlay images of BT-474 cells (3 k cells, brightfield), HEs (1 k cells, green) and HFs (1 k cells, red) cultured as spheroids for 48 h before addition of vehicle (0.1% DMSO, left panel) or 10 µM Lapatinib for 48 h (right panel).

[7] = Homo sapiens, BT-474, 48 h, read-out: EC50 (concentration at which the compound reduces cell viability by 50%), BT-474 3D spheroid, 48 h treatment

Q: With `COc1cc2ncnc(Nc3cccc(Cl)c3)c2cc1OC` [AG-1478, Tyrphostin AG1478] as the molecule, how does the “sensitivity in 3D spheroids” value [1] read?
A: decreased sensitivity

Q: For `Cc1nc(Nc2ncc(C(=O)Nc3c(C)cccc3Cl)s2)cc(N2CCN(CCO)CC2)n1` [dasatinib], which “hit in primary screen (decreasing ATP content by 50% or more compared to vehicle treated cells)” value (MCF-10A cells [2]) is on record?
A: only under 2D culture conditions

Q: And the “hit in primary screen (decreasing ATP content by 50% or more compared to vehicle treated cells)” value (BT-474 cells [3])?
A: hits under both 2D and 3D culture conditions

Q: What about the EC50 (BT-474 cells [4]; [7]) of the same molecule?
A: < 10 µM

Q: What about the EC50 (BT-474 cells [4]; Homo sapiens, BT-474, read-out: calculated EC50 values in confirmatory dose response assays, BT-474, culture condition (2D/3D) not given) of the same molecule?
A: 6 to 8 µM

Q: And the EC50 (BT-474 cells [4]; read-out: EC50 (concentration at which the compound reduces cell viability by 50%), BT-474 3D spheroid, 48 h treatment)?
A: 8.1 µM

Q: With `COc1cc2ncnc(Nc3ccc(F)c(Cl)c3)c2cc1OCCCN1CCOCC1` [gefitinib] as the molecule, how does the “hit in primary screen (decreasing ATP content by 50% or more compared to vehicle treated cells)” value (MCF-10A cells [2]) read?
A: only under 2D culture conditions

Q: What about the “hit in primary screen (decreasing ATP content by 50% or more compared to vehicle treated cells)” value (BT-474 cells [3]) of the same molecule?
A: hits under both 2D and 3D culture conditions

Q: With `CS(=O)(=O)CCNCc1ccc(-c2ccc3ncnc(Nc4ccc(OCc5cccc(F)c5)c(Cl)c4)c3c2)o1` [lapatinib] as the molecule, how does the EC50 (MCF-10A cells [5]; Homo sapiens, MCF-10A, 48 h) read?
A: > 5 µM

Q: And the EC50 (MCF-10A cells [5])?
A: 9.8 µM

Q: And the “hit in primary screen (decreasing ATP content by 50% or more compared to vehicle treated cells)” value (MCF-10A cells [2])?
A: only under 2D culture conditions

Q: And the “difference in sensitivity between 3D BT-474+HF+HE and 3D HF+HE co-cultures” value (BT-474+HF+HE co-cultures; 3D, ratio of EC50 values)?
A: about 30 fold

Q: And the EC50 (BT-474+HF+HE co-cultures; BT-474+HF+HE 2D co-culture)?
A: 3.5 µM

Q: And the EC50 (BT-474+HF+HE co-cultures; BT-474+HF+HE 3D co-culture)?
A: 0.9 µM

Q: What about the “fold less sensitive than BT-474 cancer cell spheroids” value (HF+HE co-cultures; HF+HE spheroids, 3D, Figure S1A) of the same molecule?
A: 100 fold

Q: What about the EC50 (HF+HE co-cultures; HF+HE 2D co-culture) of the same molecule?
A: 2.7 µM

Q: And the EC50 (HF+HE co-cultures; HF+HE 3D co-culture)?
A: 30 µM

Q: And the “fold less sensitive than BT-474 cancer cell spheroids” value [6]?
A: 10 fold

Q: And the “hit in primary screen (decreasing ATP content by 50% or more compared to vehicle treated cells)” value (BT-474 cells [3])?
A: hits under both 2D and 3D culture conditions

Q: What about the “sensitivity of BT-474 spheroids compared to BT-474+HF+HE co-cultures” value (BT-474 cells [4]; 3D spheroids) of the same molecule?
A: more sensitive

Q: For `CC[C@]1(O)C[C@@H]2CN(CCc3c([nH]c4ccccc34)[C@@](C(=O)OC)(c3cc4c(cc3OC)N(C)[C@H]3[C@@](O)(C(=O)OC)[C@H](OC(C)=O)[C@]5(CC)C=CCN6CC[C@]43[C@@H]65)C2)C1` [vinblastine], which “selectivity for BT-474 cells over MCF-10A cells in primary screen” value (BT-474 cells [3]) is on record?
A: slight selectivity

Q: For `CCC1=C[C@@H]2CN(C1)Cc1c([nH]c3ccccc13)[C@@](C(=O)OC)(c1cc3c(cc1OC)N(C)[C@H]1[C@@](O)(C(=O)OC)[C@H](OC(C)=O)[C@]4(CC)C=CCN5CC[C@]31[C@@H]54)C2` [vinorelbine], which EC50 (MCF-10A cells [5]; Homo sapiens, MCF-10A, 48 h) is on record?
A: > 100 µM

Q: What about the “hit in primary screen (decreasing ATP content by 50% or more compared to vehicle treated cells)” value (MCF-10A cells [2]) of the same molecule?
A: we did not identify vinorelbine as a “hit”

Q: And the “selectivity for BT-474 cells over MCF-10A cells in primary screen” value (BT-474 cells [3])?
A: slight selectivity

Q: And the EC50 (BT-474 cells [4]; [7])?
A: 5.2 µM
